Like-named read-outs stand apart in the source and are kept apart here.
What was measured:
[1] = tested on: oral (buccal) mucosa cells (TR146); type: cell-based, human
Description: (§1) The protective effect of the recombinant lectin on survival of TR146 cells against 5-FU induced damage was determined using following calculations:
(§2) The viability of cells was determined as: % Cell viability=(100−% Cytotoxicity); • where, the percentage cytotoxicity corresponding to each treatment was calculated as: % Cytotoxicity=[(R−X)/R]*100, wherein X=Absorbance of cells treated with 5-FU or radiation damage/TI+5-FU, R=Absorbance of Control cells (Untreated) and Percentage protection was calculated as:
(§3) {(Absorbance of TI+5-FU or radiation)−(Absorbance of 5-FU or radiation alone)/(Absorbance of Untreated)−(Absorbance of 5-FU alone)}*100

[2] = tested on: oral (buccal) mucosa cells (TR146); assay: Cytoprotective effect against 5-FU induced damage (MTT); type: cell-based, human
Description: The cell viability was assessed by (MTT) assay and compared with positive control (Cells treated with Amifostine, EGCG and EGF and negative assay (untreated cells), wherein the control was the cells that underwent chemotherapy/radiotherapy.
as §1, §2, §3

[3] = tested on: oral (buccal) mucosa cells (TR146); conditions: human, 24 h
Description: Non-cytotoxic concentration of recombinant lectin having the amino acid sequence of SEQ ID NO: 2 was determined by treating oral (buccal) mucosa cells (TR146) with varying concentration of SEQ ID NO: 2 for 24 hrs and determining the cell viability using MTT assay.

[4] = tested on: oral (buccal) mucosa cells (TR146); assay: Sub(G0/G1) cell population (cell cycle) against radiation induced damage; type: cell-based, human; conditions: for % Decrease in Apoptotic cells (with respect to control): Sub G0/G1
Description: To determine the effect of test item on cell cycle, oral buccal mucosal cells (TR146) were incubated overnight in 5% CO2 incubator at 37° C. for 24 h. […] After 24 h of treatment, cells were exposed to chemotherapy (5-FU 10 mM) for 24 h or radiotherapy (Gamma radiation (3.5 kGy) using Cobalt 60) for 2 h.
After incubation, cells were harvested by trypsinization and processed for Cell cycle assay. Accordingly, cells were harvested into prelabeled centrifuge tubes and centrifuged at 450 g for 5 min at room temperature (RT, low brake). The supernatants were removed carefully and discarded. 1 ml of 1× phosphate buffer saline (PBS) was added to the pellet and resuspended gently to make homogenous suspension. Cells were centrifuged at 450 g for 5 min, RT (low brake). The supernatant was carefully removed leaving behind approx. 100 μl of PBS. Cells were resuspended gently yet thoroughly in residual PBS. Ice-cold 70% ethanol (100 μl) was added drop-wise into cells in each tube while vortexing at low speed (fixation step). Cells stored at 4° C. for 24 h were centrifuged at 450 g for 5 min, RT (low brake). The supernatant was carefully removed without touching the pellet and discarded. 1 ml of 1×PBS was added into pellet and resuspended gently. Cells were incubated for 1 minute at RT. Cells were centrifuged at 450 g for 5 min, RT (low brake). The supernatant was removed carefully without touching the pellet, leaving behind approx. 20-50 μl of PBS. 200 μl of cell cycle reagent was added into each tube. Cells were resuspended gently and mixed. Cells were incubated for 30 min at RT in the dark. The stained samples were transferred into 96-well plates and acquired on flow cytometer (Guava technologies). Percentage of cells in Sub (G0/G1) phase were determined based on the concept that cell cycle reagent contains PI stain, which stains DNA of cells in different phases of cell cycle; Sub (G0/G1), G1, S, G2 and M. Cells in Sub (G0/G1) phase correspond to apoptotic cells. Percent inhibition in apoptotic cells is determined by the formula:
=[(% Sub(G0/G1) cells in 5-FU/radiation alone)−(% Sub(G0/G1) cells in TI+5-FU/radiation)/% Sub(G0/G1) cells in 5-FU/radiation alone]*100

[5] = tested on: oral (buccal) mucosa cells (TR146); assay: Restoration of mitochondrial membrane potential (JC-1) against radiation induced damage; type: cell-based, human; conditions: for MMP: red/green JC-1 fluorescence ratio
Description: Oral buccal mucosal cells (TR146) were incubated overnight in 5% CO2 incubator at 37° C. for 24 h. […] After 24 h of treatment, cells were exposed to damage (5-FU 5 mM) for 1.25 h for chemotherapy induced inflammation and exposed to gamma radiation (3.5 kGy) using Cobalt 60 for radiation induced inflammation. After the exposure, the anti-apoptotic effect of SEQ ID NO 2 was determined by restoration of mitochondrial membrane depolarization by JC-1 staining and reduction in apoptotic cell populations (Annexin positive and subG0/G1 cells in cell cycle analysis).
After incubation, the supernatants were discarded and 100 μl of JC1-dye solution (prepared by diluting 1 mM DMSO stock into 10 μM in 1×PBS) was added to each well. The cells were then incubated with the dye in CO2 incubator at 37° C. for 15 min, after which the supernatant was removed, and the cells were washed twice with 1×PBS. 100 μl of 1×PBS was finally added to each well. Red fluorescence (excitation 550 nm, emission 600 nm) and green fluorescence (excitation 485 nm, emission 535 nm) were measured using Biotek Synergy HT plate reader. The mitochondrial membrane potential (Δψm) was calculated as the ratio of intensity of red fluorescence to intensity of green fluorescence.
The percentage increase/restoration in mitochondrial membrane potential (MMP) was calculated as: % Increase=[(R−X)/R]*100 • Where, X=Δψm corresponding to TI+5-FU treated cells or TI+radiation treated cells; R=Δψm corresponding to control cells (FU damaged or Radiation damaged alone)

[6] = tested on: oral (buccal) mucosa cells (TR146); assay: Annexin positive cell population against 5-FU damage; type: cell-based, human
[7] = 0.1 μg/ml + Radiation (3.5 kGy)

**Q.** Which “% Protection” value ([1]; 1 μg/ml + Radiation (3.5 kGy)) does the source give for `NCCCNCCSP(=O)(O)O` [Amifostine, reference compound] here?
**A.** 7.7%

**Q.** And the “% Protection” value ([1]; 5 μg/ml + Radiation (3.5 kGy))?
**A.** 22.2%

**Q.** And the “% Protection” value ([1]; 10 μg/ml + Radiation (3.5 kGy))?
**A.** 43.1%

**Q.** And the “% Protection” value ([1]; 25 μg/ml + Radiation (3.5 kGy))?
**A.** 12%

**Q.** What about the “% Protection” value ([2]; 1 μg/ml + 5-FU (5 mM)) of the same compound?
**A.** 4.1%

**Q.** And the “% Protection” value ([2]; 5 μg/ml + 5-FU (5 mM))?
**A.** 28.8%

**Q.** And the “% Protection” value ([2]; 10 μg/ml + 5-FU (5 mM))?
**A.** 55.2%

**Q.** And the “% Protection” value ([2]; 25 μg/ml + 5-FU (5 mM))?
**A.** 37.5%

**Q.** What about the non-cytotoxic concentration range [3] of the same compound?
**A.** 1 to 25 µg/mL

**Q.** And the “% Apoptotic cells (Sub G0/G1)” value [4, 7]?
**A.** 19.4%

**Q.** What about the “% Decrease in Apoptotic cells (with respect to control)” value (from here on “% Decrease … (with respect to control)”) [4, 7] of the same compound?
**A.** 45.1%

**Q.** And the “% Apoptotic cells (Sub G0/G1)” value ([4]; 1 μg/ml + Radiation (3.5 kGy))?
**A.** 21.8%

**Q.** What about the “% Decrease … (with respect to control)” value ([4]; 1 μg/ml + Radiation (3.5 kGy)) of the same compound?
**A.** 38.2%

**Q.** What about the “% Apoptotic cells (Sub G0/G1)” value ([4]; 10 μg/ml + Radiation (3.5 kGy)) of the same compound?
**A.** 12.9%

**Q.** And the “% Decrease … (with respect to control)” value ([4]; 10 μg/ml + Radiation (3.5 kGy))?
**A.** 63.5%

**Q.** What about the “% Increase in MMP (with respect to control)” value (“% Increase in MMP” for short) [5, 7] of the same compound?
**A.** 28.2%

**Q.** And the MMP [5, 7]?
**A.** 5.90

**Q.** And the “% Increase in MMP” value ([5]; 1 μg/ml + Radiation (3.5 kGy))?
**A.** 39.7%

**Q.** What about the MMP ([5]; 1 μg/ml + Radiation (3.5 kGy)) of the same compound?
**A.** 6.43

**Q.** And the “% Increase in MMP” value ([5]; 10 μg/ml + Radiation (3.5 kGy))?
**A.** 35.2%

**Q.** What about the MMP ([5]; 10 μg/ml + Radiation (3.5 kGy)) of the same compound?
**A.** 6.23

**Q.** What about the “% Apoptotic cells (Annexin +ve)” value ([6]; 1 μg/ml + 5FU (10 mM)) of the same compound?
**A.** 2.4%

**Q.** And the “% Decrease in Apoptotic cells (with respect to 5-FU)” value (from here on “% Decrease … (with respect to 5-FU)”) ([6]; 1 μg/ml + 5FU (10 mM))?
**A.** 85.7%

**Q.** And the “% Apoptotic cells (Annexin +ve)” value ([6]; 10 μg/ml + 5FU (10 mM))?
**A.** 2.6%

**Q.** And the “% Decrease … (with respect to 5-FU)” value ([6]; 10 μg/ml + 5FU (10 mM))?
**A.** 84.5%

**Q.** What about the “% Apoptotic cells (Annexin +ve)” value ([6]; 50 μg/ml + 5FU (10 mM)) of the same compound?
**A.** 2.8%

**Q.** And the “% Decrease … (with respect to 5-FU)” value ([6]; 50 μg/ml + 5FU (10 mM))?
**A.** 82.9%
